In brackets after ≈: the same amount, converted by molar mass. Activity calls are given as the source filed them. No cut-off for these calls is given here.
What was measured:
[1] = Toxicity in rabbit ventricular wedge assessed as change in […] at 2 uM; assay type: tissue-based, Oryctolagus cuniculus, Cardiac ventricle
[2] = AUC (0 to infinity) in Sprague-Dawley rat at 20.2 mg/kg, po; assay type: ADME, organism-based; set-up: time infinity, dose 20.2 mg/kg, route oral; conditions: plasma
[3] = Toxicity in rabbit ventricular wedge assessed as change in QT at 2 uM; assay type: tissue-based, Oryctolagus cuniculus, Cardiac ventricle
[4] = tested on: Plasmodium berghei; assay: Antimalarial activity against Plasmodium berghei ANKA expressing GFP infected in Sprague-Dawley rat assessed as reduction in parasitemia at 50 mg/kg, po administered as 4 doses measured on day 4 post-infection by flow cytometry; assay type: functional; set-up: scale not given: the % may be the effect or the level left
[5] = tested on: Plasmodium berghei; assay: Antimalarial activity against Plasmodium berghei ANKA expressing GFP infected in Sprague-Dawley rat assessed as reduction in parasitemia at 30 mg/kg, po administered as single dose measured on day 3 post-infection by flow cytometry; assay type: functional; set-up: scale not given: the % may be the effect or the level left
[6] = Volume of distribution at steady state in Sprague-Dawley rat at 3.2 mg/kg, iv; assay type: ADME, organism-based; set-up: dose 3.2 mg/kg, route intravenous; conditions: plasma, read-out: Vdss
[7] = target: Cytochrome P450 3A4/3A5 (Homo sapiens, UniProt P08684+P20815); assay: Inhibition of CYP3A4/CYP3A5-mediated testosterone 6beta-hydroxylation in human liver microsomes; assay type: ADME, Microsome
[8] = Plasma protein binding in human by reverse phase gradient HPLC analysis; assay type: ADME, cell-free; conditions: read-out: PPB (converted)
[9] = tested on: Plasmodium berghei; assay: Antimalarial activity against Plasmodium berghei ANKA expressing GFP infected in Sprague-Dawley rat assessed as mean survival days of host at 30 mg/kg, po administered as single dose; assay type: functional
[10] = Intrinsic clearance in human liver microsomes at 1 uM up to 60 mins; assay type: ADME, Microsome; conditions: read-out: CLH
[11] = target: Cytochrome P450 2C19 (Homo sapiens, UniProt P33261); assay: Inhibition of CYP2C19-mediated (S)-mephenytoin 4'-hydroxylation in human liver microsomes; assay type: ADME, Microsome
Cytochrome P450 2C19, sequence (P33261 whole entry): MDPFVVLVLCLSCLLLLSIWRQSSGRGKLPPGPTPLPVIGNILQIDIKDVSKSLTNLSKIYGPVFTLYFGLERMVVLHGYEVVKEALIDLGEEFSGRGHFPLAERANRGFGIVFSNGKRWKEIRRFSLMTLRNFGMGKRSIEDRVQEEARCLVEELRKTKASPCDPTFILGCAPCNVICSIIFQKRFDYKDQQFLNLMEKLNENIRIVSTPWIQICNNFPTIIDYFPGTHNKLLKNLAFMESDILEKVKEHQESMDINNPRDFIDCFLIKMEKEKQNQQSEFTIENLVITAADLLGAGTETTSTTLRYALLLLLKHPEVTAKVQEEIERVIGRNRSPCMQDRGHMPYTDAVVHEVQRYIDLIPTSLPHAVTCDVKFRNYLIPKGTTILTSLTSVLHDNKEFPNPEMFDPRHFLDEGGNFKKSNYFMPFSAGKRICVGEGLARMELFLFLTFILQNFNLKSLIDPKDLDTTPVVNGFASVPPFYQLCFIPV

[12] = tested on: Plasmodium berghei; assay: Antimalarial activity against Plasmodium berghei ANKA expressing GFP infected in Sprague-Dawley rat assessed as mean survival days of host at 3 mg/kg, po administered as single dose; assay type: functional
[13] = tested on: Plasmodium berghei; assay: Antimalarial activity against Plasmodium berghei ANKA expressing GFP infected in Sprague-Dawley rat assessed as total cure from parasite at 30 mg/kg, po administered as single dose measured on day 30 post-infection by flow cytometry; assay type: functional, organism-based; set-up: dose 30 mg/kg
[14] = Half life in human liver microsomes at 1 uM; assay type: ADME, Microsome
[15] = tested on: Plasmodium berghei; assay: Antimalarial activity against Plasmodium berghei ANKA expressing GFP infected in Sprague-Dawley rat assessed as total cure from parasite at 50 mg/kg, po administered as 4 doses measured on day 30 post-infection by flow cytometry; assay type: functional, organism-based; set-up: dose 50 mg/kg
[16] = tested on: Plasmodium berghei; assay: Antimalarial activity against Plasmodium berghei ANKA expressing GFP infected in Sprague-Dawley rat assessed as mean survival days of host at 50 mg/kg, po administered as 4 doses; assay type: functional
[17] = tested on: Plasmodium berghei; assay: Antimalarial activity against Plasmodium berghei ANKA expressing GFP infected in Sprague-Dawley rat assessed as reduction in parasitemia at 3 mg/kg, po administered as single dose measured on day 3 post-infection by flow cytometry; assay type: functional; set-up: scale not given: the % may be the effect or the level left
[18] = Apparent terminal half life in Sprague-Dawley rat at 3.2 mg/kg, iv; assay type: ADME, organism-based; set-up: dose 3.2 mg/kg, route intravenous; conditions: in vivo, read-out: betat1/2(app) (converted)
[19] = Toxicity in rabbit ventricular wedge assessed as change in TP-e at 2 uM; assay type: tissue-based, Oryctolagus cuniculus, Cardiac ventricle
[20] = Cmax in Sprague-Dawley rat at 20.2 mg/kg, po; assay type: ADME, organism-based; set-up: dose 20.2 mg/kg, route oral; conditions: in vivo
[21] = target: T1, Cytochrome P450 1A2 (Homo sapiens, UniProt P05177); assay: Inhibition of CYP1A2-mediated phenacetin O-deethylation in human liver microsomes; assay type: ADME, Microsome
T1 sequence (P05177 whole entry): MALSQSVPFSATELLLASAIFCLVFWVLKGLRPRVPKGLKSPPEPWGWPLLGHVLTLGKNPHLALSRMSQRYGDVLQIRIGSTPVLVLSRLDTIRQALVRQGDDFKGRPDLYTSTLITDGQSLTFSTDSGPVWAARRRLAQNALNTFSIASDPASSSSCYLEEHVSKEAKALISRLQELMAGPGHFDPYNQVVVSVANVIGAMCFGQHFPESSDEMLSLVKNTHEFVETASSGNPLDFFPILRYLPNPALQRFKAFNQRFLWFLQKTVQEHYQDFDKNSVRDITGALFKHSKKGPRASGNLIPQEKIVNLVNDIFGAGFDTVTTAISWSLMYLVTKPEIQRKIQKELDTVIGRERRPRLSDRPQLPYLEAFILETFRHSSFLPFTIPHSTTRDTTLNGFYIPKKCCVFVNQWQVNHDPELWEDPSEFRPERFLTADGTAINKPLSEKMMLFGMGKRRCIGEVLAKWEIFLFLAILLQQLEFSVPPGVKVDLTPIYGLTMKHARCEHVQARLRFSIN

[22] = tested on: Plasmodium berghei; assay: Antimalarial activity against Plasmodium berghei ANKA expressing GFP infected in po dosed Sprague-Dawley rat assessed as reduction in parasitemia administered as single dose measured on day 3 post-infection by flow cytometry; assay type: functional; conditions: 72 h
[23] = tested on: Plasmodium berghei; assay: Antimalarial activity against Plasmodium berghei ANKA expressing GFP infected in Sprague-Dawley rat assessed as mean survival days of host at 10 mg/kg, po administered as single dose; assay type: functional
[24] = tested on: L6; assay: Cytotoxicity against rat L6 cells after 72 hrs by alamar blue assay; assay type: cell-based; conditions: l6, 72 h
[25] = Apparent terminal half life in Sprague-Dawley rat at 20.2 mg/kg, po; assay type: ADME, organism-based; set-up: dose 20.2 mg/kg, route oral; conditions: in vivo, read-out: betat1/2(app) (converted)
[26] = tested on: Plasmodium berghei; assay: Antimalarial activity against Plasmodium berghei ANKA expressing GFP infected in Sprague-Dawley rat assessed as reduction in parasitemia at 10 mg/kg, po administered as single dose measured on day 3 post-infection by flow cytometry; assay type: functional; set-up: scale not given: the % may be the effect or the level left
[27] = Kinetic solubility of the compound in phosphate buffer after 30 mins by nephelometry at pH 6.5; assay type: physicochemical; conditions: read-out: Kinetic_solubility
[28] = tested on: Plasmodium berghei; assay: Antimalarial activity against Plasmodium berghei ANKA expressing GFP infected in Sprague-Dawley rat assessed as mean survival days of host at 100 mg/kg, po administered as single dose; assay type: functional
[29] = tested on: Plasmodium berghei; assay: Antimalarial activity against Plasmodium berghei ANKA expressing GFP infected in Sprague-Dawley rat assessed as total cure from parasite at 100 mg/kg, po administered as single dose measured on day 30 post-infection by flow cytometry; assay type: functional, organism-based; set-up: dose 100 mg/kg
[30] = Total plasma clearance in Sprague-Dawley rat at 3.2 mg/kg, iv; assay type: ADME, organism-based; set-up: dose 3.2 mg/kg, route intravenous
[31] = tested on: Plasmodium berghei; assay: Antimalarial activity against Plasmodium berghei ANKA expressing GFP infected in Sprague-Dawley rat assessed as reduction in parasitemia at 100 mg/kg, po administered as single dose measured on day 3 post-infection by flow cytometry; assay type: functional; set-up: scale not given: the % may be the effect or the level left
[32] = AUC (0 to infinity) in Sprague-Dawley rat at 3.2 mg/kg, iv; assay type: ADME, organism-based; set-up: time infinity, dose 3.2 mg/kg, route intravenous; conditions: plasma
[33] = tested on: Salmonella typhimurium; assay: Genotoxicity in Salmonella typhimurium by Ames test; assay type: toxicity, organism-based; conditions: salmonella enterica subsp. enterica serovar typhimurium
[34] = Partition coefficient, log D of the compound at pH 7.4 by phase gradient HPLC analysis; assay type: physicochemical; conditions: octanol/water
[35] = Tmax in Sprague-Dawley rat at 20.2 mg/kg, po; assay type: ADME, organism-based; set-up: dose 20.2 mg/kg, route oral; conditions: in vivo
[36] = Oral bioavailability in Sprague-Dawley rat at 20.2 mg/kg; assay type: ADME, organism-based; conditions: in vivo
[37] = Solubility of the compound at 10 uM; assay type: physicochemical
[38] = tested on: Plasmodium falciparum; assay: Antimalarial activity against chloroquine-resistant Plasmodium falciparum K1 after 24 hrs by hypoxanthine incorporation assay; assay type: functional, organism-based; conditions: K1, 24 h
[39] = target: Cytochrome P450 2D6 (Homo sapiens, UniProt P10635); assay: Inhibition of CYP2D6-mediated dextromethorphan O-demethylation in human liver microsomes; assay type: ADME, Microsome
Cytochrome P450 2D6, sequence (P10635 whole entry): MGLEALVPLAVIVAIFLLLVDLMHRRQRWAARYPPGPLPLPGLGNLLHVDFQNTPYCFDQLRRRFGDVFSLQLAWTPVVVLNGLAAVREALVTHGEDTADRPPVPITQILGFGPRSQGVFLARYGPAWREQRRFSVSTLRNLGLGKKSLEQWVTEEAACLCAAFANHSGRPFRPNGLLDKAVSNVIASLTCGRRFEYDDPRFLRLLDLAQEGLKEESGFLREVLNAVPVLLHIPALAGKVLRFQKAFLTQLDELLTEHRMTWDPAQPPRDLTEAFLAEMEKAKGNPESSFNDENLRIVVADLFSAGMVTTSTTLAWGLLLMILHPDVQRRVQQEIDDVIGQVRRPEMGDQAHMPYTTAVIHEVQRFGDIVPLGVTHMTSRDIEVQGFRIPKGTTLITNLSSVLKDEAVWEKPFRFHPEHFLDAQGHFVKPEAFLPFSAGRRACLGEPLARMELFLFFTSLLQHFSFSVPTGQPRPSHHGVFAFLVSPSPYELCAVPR

[40] = target: Cytochrome P450 2C9 (Homo sapiens, UniProt P11712); assay: Inhibition of CYP2C9-mediated tolbutamide methylhydroxylation in human liver microsomes; assay type: ADME, Microsome
Cytochrome P450 2C9, sequence (P11712 whole entry): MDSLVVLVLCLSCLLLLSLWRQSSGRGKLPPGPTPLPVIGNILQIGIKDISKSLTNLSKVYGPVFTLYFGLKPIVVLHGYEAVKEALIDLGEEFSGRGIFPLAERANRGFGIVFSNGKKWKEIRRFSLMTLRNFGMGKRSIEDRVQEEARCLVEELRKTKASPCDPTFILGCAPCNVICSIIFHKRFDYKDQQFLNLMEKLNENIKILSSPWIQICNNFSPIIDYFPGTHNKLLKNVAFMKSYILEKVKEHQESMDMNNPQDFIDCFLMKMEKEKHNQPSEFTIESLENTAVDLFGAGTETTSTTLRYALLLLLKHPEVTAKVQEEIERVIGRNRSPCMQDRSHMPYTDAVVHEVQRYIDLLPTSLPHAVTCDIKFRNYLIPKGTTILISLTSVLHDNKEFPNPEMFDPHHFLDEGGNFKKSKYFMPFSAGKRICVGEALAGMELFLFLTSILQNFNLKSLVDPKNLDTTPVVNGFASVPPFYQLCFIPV

**Q.** With `CS(=O)(=O)c1ccc(-c2cnc(N)c(-c3ccc(C(F)(F)F)nc3)c2)cc1` [MMV-048] as the compound, how does the Activity [1] read?
**A.** Non-toxic

**Q.** And the AUC(0-inf) [2]?
**A.** 74.2 µM·h

**Q.** And the Activity [3]?
**A.** Non-toxic

**Q.** And the Activity [4]?
**A.** 99.7%

**Q.** What about the Activity [5] of the same compound?
**A.** 99.3%

**Q.** And the Vd [6]?
**A.** 2.7 L/kg

**Q.** What about the INH [7] of the same compound?
**A.** > 20 µM

**Q.** And the fraction unbound [8]?
**A.** 0.139

**Q.** What about the MSD [9] of the same compound?
**A.** >30 days

**Q.** What about the microsomal CLint at 1 µM [10] of the same compound?
**A.** < 1.4 µL/min/mg

**Q.** And the INH [11]?
**A.** > 20 µM

**Q.** And the MSD [12]?
**A.** 8 days

**Q.** What about the Activity [13] of the same compound?
**A.** Active

**Q.** And the half-life at 1 µM [14]?
**A.** > 8.33 h

**Q.** And the Activity [15]?
**A.** Active

**Q.** What about the MSD [16] of the same compound?
**A.** >30 days

**Q.** What about the Activity [17] of the same compound?
**A.** 98%

**Q.** What about the half-life [18] of the same compound?
**A.** 7.3 h

**Q.** And the Activity [19]?
**A.** Non-toxic

**Q.** And the Cmax [20]?
**A.** 8 µM

**Q.** What about the INH [21] of the same compound?
**A.** > 20 µM

**Q.** What about the ED50 [22] of the same compound?
**A.** 0.83 mg/kg

**Q.** What about the ED90 [22] of the same compound?
**A.** 1.7 mg/kg

**Q.** What about the MSD [23] of the same compound?
**A.** 13 days

**Q.** What about the Activity [24] of the same compound?
**A.** 251.4 µM

**Q.** What about the half-life [25] of the same compound?
**A.** 8.5 h

**Q.** And the Activity [26]?
**A.** 98%

**Q.** And the solubility kinetic at 0.5 h [27]?
**A.** 6.3 µg/mL (≈ 16 µM)

**Q.** What about the MSD [28] of the same compound?
**A.** >30 days

**Q.** And the Activity [29]?
**A.** Active

**Q.** What about the clearance [30] of the same compound?
**A.** 6.5 mL/min/kg

**Q.** And the Activity [31]?
**A.** 99.5%

**Q.** What about the AUC(0-inf) [32] of the same compound?
**A.** 23.4 µM·h

**Q.** What about the Activity [33] of the same compound?
**A.** Non-toxic

**Q.** And the chromatographic logD [34]?
**A.** 2.6

**Q.** What about the Tmax [35] of the same compound?
**A.** 2.5 h

**Q.** What about the bioavailability [36] of the same compound?
**A.** 51%

**Q.** And the solubility [37]?
**A.** Insoluble

**Q.** And the IC50 [38]?
**A.** 25 nM

**Q.** What about the INH [39] of the same compound?
**A.** > 20 µM

**Q.** What about the INH [40] of the same compound?
**A.** > 20 µM

— ChEMBL document CHEMBL2040800 (J Med Chem, 2012)
